The text below walks through data of patent EP4810508A1, “ARABINOSE DERIVATIVE COMPOUND, AND COMPOSITION COMPRISING SAME FOR PREVENTING OR TREATING DEGENERATIVE BRAIN DISEASES” (Digmbio. Inc., priority 2023, dated 2025).

The structures appear in SMILES notation. Like-named read-outs stand apart in the source and are kept apart here.

This test has as its system HRE/Luc/HEK293 cells. The test is described as follows: HRE (Hypoxia Response Element) luciferase assay. In kind it is cell-based, human. To be noted: for fold induction at 10 µM / fold induction at 100 µM: Homo sapiens; for HRE expression: low concentration of 1 µM. Here is the method: • (a) HRE assay: Confirmation of increased in HRE expression levels by the test substance relative to the vehicle in HRE/Luc/HEK293 cells • * Less than a twofold increase at 100 µM, • ** More than a twofold increase at 100 µM, • *** More than a twofold increase at 10 µM, • **** More than a twofold increase at 1 µM, • Not performed.
It has been reported that in the brains of AD patients, blood supply is mostly insufficient, resulting in oxygen levels being up to 50% lower than those of normal individuals, leading to increased oxidative stress (ROS) and neuroinflammation. It has also been studied that when the HIF-1α (hypoxia inducible factor-1) factor binds to the HRE (hypoxia response element), it increases VEGF (vascular endothelial growth factor), which promotes the formation of new blood vessels, thereby increasing oxygen levels in the brain and helping to inhibit nerve cell damage.
A reporter gene containing luciferase, capable of verifying the level of HRE expression, was inserted into HEK-293 human embryonic kidney cells, and HRE/Luc/HEK293 cells were constructed by inserting a plasmid (HRE/Luc) with luciferase attached downstream of the HRE promoter that binds to HIF-1α using lipofectamine (Invitrogen).
To perform HRE luciferase analysis, HRE/Luc/HEK293 cells were seeded in 96-well culture plates at a cell density of 4 x 10^4 per well in minimal essential medium (MEM) containing 10% fetal bovine serum. After one day, the cell medium was removed and replaced with medium mixed with various concentrations of example compounds. Six hours after compound pretreatment, HRE/Luc/HEK293 cells were cultured under hypoxic conditions (O2 0.1%) for 18 hours. Subsequently, the cells were washed with phosphate buffer, lysed with lysis buffer, and then the luciferase reagent (Promega) for luciferase analysis was added. Afterward, changes in HRE expression levels associated with HIF-1 signaling were evaluated by measuring luminescence using an Infinite200 (Tecan).

[1] abbreviates: HEK293, fold increase of HRE expression, hypoxic conditions (O2 0.1%) 18 hours, Table 2, read-out: HRE-increasing 10uM.
Setting [2] is: HEK293, fold increase of HRE expression, hypoxic conditions (O2 0.1%) 18 hours, Table 2, read-out: HRE-increasing 100uM.
The mark [3] stands for this setting: HEK293, 18 h, Table 2 (Examples 37-74, 52), read-out: HKt-increasing 10uM.
[4] abbreviates: HEK293, 18 h, Table 2 (Examples 37-74, 52), read-out: HKt-increasing 100uM.
The mark [5] stands for this setting: HEK293, 18 h, Table 2 (Examples 75-109, 114), read-out: HRE-inceasing 10uM.
Setting [6] is: HEK293, 18 h, Table 2 (Examples 75-109, 114), read-out: HRE-inceasing 100uM.

Turning to `COc1ccc(C(c2ccc(O[C@H]3OC[C@H](O)[C@H](O)[C@H]3O)cc2)(C(F)(F)F)C(F)(F)F)cc1` [Example 32, (2R,3R,4S,5S)-2-(4-(1,1,1,3,3,3-hexafluoro-2-(4-methoxyphenyl)propan-2-yl)phenoxy)tetrahydro-2H-pyran-3,4,5-triol], the fold induction at 10 µM under setting [1] worked out at 1.3. In addition, the fold induction at 100 µM under setting [2] stood at 1.8.
With `CC(C)c1ccc(Oc2ccc(O[C@H]3OC[C@H](O)[C@H](O)[C@H]3F)cc2)cc1` [Example 63, (3S,4S,5R,6R)-5-fluoro-6-(4-(4-isopropylphenoxy)phenoxy)tetrahydro-2H-pyran-3,4-diol], the fold induction at 10 µM under setting [3] was found to be 2.4. Under setting [4], the fold induction at 100 µM amounted to 2.3.
The like results for `CC[C@H]1CC[C@H](Cc2ccc(O[C@H]3OC[C@H](O)[C@H](O)[C@H]3O)cc2)CC1` [Example 73, (2R,3R,4S,5S)-2-(4-(((1R,4R)-4-ethylcyclohexyl)methyl)phenoxy)tetrahydro-2H-pyran-3,4,5-triol] were, in that order, 2.1 and 3.
For `COc1ccc(-c2ccc(O[C@H]3OC[C@H](O)[C@H](O)[C@H]3O)cc2)cc1` [Example 84, (2R,3R,4S,5S)-2-((4'-methoxy-[1,1'-biphenyl]-4-yl)oxy)tetrahydro-2H-pyran-3,4,5-triol], the fold induction at 10 µM under setting [5] was 2.5. Moreover, the fold induction at 100 µM under setting [6] was 3.5.
The like results for `Cc1ccc2c(ccn2-c2ccc(O[C@H]3OC[C@H](O)[C@H](O)[C@H]3O)cc2)c1` [Example 90, (2R,3R,4S,5S)-2-(4-(5-methyl-1H-indol-1-yl)phenoxy)tetrahydro-2H-pyran-3,4,5-triol] were, in that order, 1.7 and 2.4.
For `COc1ccc2oc(-c3ccc(O[C@@H]4OC[C@@H](O)[C@H](O)[C@H]4O)cc3)nc2c1` [Example 94, (2S,3R,4S,5R)-2-(4-(5-methoxybenzo[d]oxazol-2-yl)phenoxy)tetrahydro-2H-pyran-3,4,5-triol], the HRE expression entry is on record as “more than threefold”. For the same compound, the fold induction at 10 µM under setting [5] is 3. In addition, the fold induction at 100 µM under setting [6] came to 2.2.
Turning to `COc1ccc(Cc2ccc(O[C@H]3OC[C@H](O)[C@H](O)[C@H]3O)cc2)c(F)c1` [Example 50, (2R,3R,4S,5S)-2-(4-(2-fluoro-4-methoxybenzyl)phenoxy)tetrahydro-2H-pyran-3,4,5-triol], the fold induction at 10 µM under setting [3] turned out to be 1. Moreover, the fold induction at 100 µM under setting [4] came to 1.4.
`CC(C)c1ccc(Cc2ccc(O[C@H]3OC[C@H](O)[C@H](O)[C@H]3O)cc2Cl)cc1` [Example 40, (2R,3R,4S,5S)-2-(3-chloro-4-(4-isopropylbenzyl)phenoxy)tetrahydro-2H-pyran-3,4,5-triol]: the fold induction at 10 µM under setting [3] was determined as 2.6. The fold induction at 100 µM under setting [4] is 3.1.
As to `CCc1ccc2c(-c3ccc(O[C@@H]4OC[C@H](O)[C@H](O)[C@H]4O)cc3)coc2c1` [Example 96, (2S,3R,4S,5S)-2-(4-(6-ethylbenzofuran-3-yl)phenoxy)tetrahydro-2H-pyran-3,4,5-triol], under setting [5], the fold induction at 10 µM amounted to 2.6. For the same compound, the fold induction at 100 µM under setting [6] was determined as 2.9.
`O[C@@H]1[C@@H](O)[C@@H](Oc2ccc(CC3CCCC3)cc2)OC[C@@H]1O` [Example 21, (2R,3R,4S,5S)-2-(4-(cyclopentylmethyl)phenoxy)tetrahydro-2H-pyran-3,4,5-triol]: the fold induction at 10 µM under setting [1] was 2.3. For the same compound, the fold induction at 100 µM under setting [2] turned out to be 2.4.
For `COc1ccc(Cc2ccc(O[C@H]3OC[C@H](O)[C@H](O)[C@H]3OC(=O)CCCCCCCCCN)cc2)cc1` [Example 79, (2R,3R,4S,5S)-4,5-dihydroxy-2-(4-(4-methoxybenzyl)phenoxy)tetrahydro-2H-pyran-3-yl 10-aminodecanoate], the fold induction at 10 µM under setting [5] was 1. Also, the fold induction at 100 µM under setting [6] worked out at 1.7.
As for `CC(C)Oc1ccc(Cc2ccc(O[C@H]3OC[C@H](O)[C@H](O)[C@H]3O)cc2)cc1` [Example 44], the fold induction at 10 µM under setting [3] worked out at 1.1. Moreover, the fold induction at 100 µM under setting [4] stood at 1.3.
Consider `COc1ccc2oc(-c3ccc(O[C@H]4OC[C@@H](O)[C@H](O)[C@H]4O)cc3)nc2c1` [Example 93, (2R,3R,4S,5R)-2-(4-(5-methoxybenzo[d]oxazol-2-yl)phenoxy)tetrahydro-2H-pyran-3,4,5-triol], for which the fold induction at 10 µM under setting [5] was determined as 2.8. The fold induction at 100 µM under setting [6] was 2.3.
In the case of `COc1ccc(Cc2ccc(O[C@H]3OC[C@H](O)[C@H](O)[C@H]3O)cc2)cc1Cl` [Example 37, (2R,3R,4S,5S)-2-(4-(3-chloro-4-methoxybenzyl)phenoxy)tetrahydro-2H-pyran-3,4,5-triol], the fold induction at 10 µM under setting [3] is 1.1. Also, the fold induction at 100 µM under setting [4] amounted to 1.3.
Turning to `COc1ccc2oc(-c3ccc(O[C@H]4OC[C@H](O)[C@H](O)[C@H]4O)c(Cl)c3)nc2c1` [Example 103, (2R,3R,4S,5S)-2-(2-chloro-4-(5-methoxybenzo[d]oxazol-2-yl)phenoxy)tetrahydro-2H-pyran-3,4,5-triol], the fold induction at 10 µM under setting [5] came to 2.6. Under setting [6], the fold induction at 100 µM came to 2.9.
Regarding `COc1ccc(Cc2ccc(O[C@H]3OC[C@H](O)[C@H](O)[C@H]3OC)cc2)cc1` [Example 5, (3S,4S,5R,6R)-5-methoxy-6-(4-(4-methoxybenzyl)phenoxy)tetrahydro-2H-pyran-3,4-diol], under setting [1], the fold induction at 10 µM worked out at 1.2. For the same compound, under setting [2], the fold induction at 100 µM was 1.9.
On to `COc1ccc2oc(-c3ccc(O[C@@H]4OC[C@H](O)[C@H](O)[C@H]4O)c(Cl)c3)nc2c1` [Example 102, (2S,3R,4S,5S)-2-(2-chloro-4-(5-methoxybenzo[d]oxazol-2-yl)phenoxy)tetrahydro-2H-pyran-3,4,5-triol], for which the HRE expression entry is on record as “more than threefold”. Also, the fold induction at 10 µM under setting [5] stood at 3.1. Besides, under setting [6], the fold induction at 100 µM worked out at 1.8.
As to `CO[C@@H]1[C@@H](O)[C@@H](Oc2ccc(Oc3ccc(C(C)C)cc3)cc2)OC[C@@H]1O` [Example 60, (2R,3R,4S,5S)-2-(4-(4-isopropylphenoxy)phenoxy)-4-methoxytetrahydro-2H-pyran-3,5-diol], under setting [3], the fold induction at 10 µM came to 2.3. Also, the fold induction at 100 µM under setting [4] came to 1.6.
Consider `Cc1ccc2oc(-c3ccc(O[C@@H]4OC[C@H](O)[C@H](O)[C@H]4O)c(F)c3)nc2c1` [Example 104, (2S,3R,4S,5S)-2-(2-fluoro-4-(5-methylbenzo[d]oxazol-2-yl)phenoxy)tetrahydro-2H-pyran-3,4,5-triol], for which the HRE expression result is reported as “more than threefold”. Further, the fold induction at 10 µM under setting [5] worked out at 3.6. Moreover, under setting [6], the fold induction at 100 µM is 2.
Take `COc1cc(Cc2ccc(O[C@H]3OC[C@H](O)[C@H](O)[C@H]3O)cc2)cc(OC)c1OC` [Example 18, (2R,3R,4S,5S)-2-(4-(3,4,5-trimethoxybenzyl)phenoxy) tetrahydro-2H-pyran-3,4,5-triol]: under setting [1], the fold induction at 10 µM came to 1.2. Also, under setting [2], the fold induction at 100 µM is 1.3.
`O=C(c1ccc(O[C@@H]2OC[C@H](O)[C@H](O)[C@H]2O)cc1)c1ccco1` [Example 114, furan-2-yl (4-(((2S,3R,4S,5S)-3,4,5-trihydroxytetrahydro-2H-pyran-2-yl)oxy)phenyl)methanone]: the fold induction at 10 µM under setting [5] stood at 1.1. For the same compound, under setting [6], the fold induction at 100 µM was determined as 1.3.
Take `COc1ccc(Cc2ccc(O[C@H]3OC[C@H](O)[C@H](O)[C@H]3N=[N+]=[N-])cc2)cc1` [Example 77, (3S,4R,5R,6R)-5-azido-6-(4-(4-methoxybenzyl)phenoxy)tetrahydro-2H-pyran-3,4-diol]: the fold induction at 10 µM under setting [5] is 1. Under setting [6], the fold induction at 100 µM stood at 1.3.
On to `CO[C@H]1CO[C@H](Oc2ccc(Oc3ccc(C(C)C)cc3)cc2)[C@H](O)[C@H]1O` [Example 61, (2R,3R,4R,5S)-2-(4-(4-isopropylphenoxy)phenoxy)-5-methoxytetrahydro-2H-pyran-3,4-diol], for which the fold induction at 10 µM under setting [3] amounted to 1.1. Moreover, the fold induction at 100 µM under setting [4] amounted to 1.3.
For `O=C(c1ccc(O[C@H]2OC[C@H](O)[C@H](O)[C@H]2O)cc1)c1ccco1` [Example 115, furan-2-yl(4-(((2R,3R,4S,5S)-3,4,5-trihydroxytetrahydro-2H-pyran-2-yl)oxy)phenyl)methanone], under setting [1], the fold induction at 10 µM was 1. Also, the fold induction at 100 µM under setting [2] came to 1.4.
As for `COc1ccc(Cc2ccc(O[C@H]3OC[C@H](O)[C@H](O)[C@H]3N)cc2)cc1` [Example 78], the fold induction at 10 µM under setting [5] is 12. Moreover, the fold induction at 100 µM under setting [6] came out at 2.4.
